Drawing on ChEMBL document CHEMBL4184140, “Expanding the tetrahydroquinoline pharmacophore” (Bioorg Med Chem Lett, 2017), this text covers Activity and IC50 for 20 molecules.

Activity calls are given as the source filed them. No cut-off for these calls is given here. Bounds are passed on as bounds.

Assay [1] concerns MCF7. Put plainly: Antiproliferative activity against human MCF7 cells. Type of assay: functional, cell-based.
The test system of assay [2] is DU-145. As to the kind of experiment: Antiproliferative activity against human DU145 cells. Type of assay: functional, cell-based.
Assay [3] concerns A549. Put plainly: Antiproliferative activity against human A549 cells. In kind it is functional, cell-based.
In assay [4] the test system is HepG2. Put plainly: Antiproliferative activity against human HepG2 cells. Type of assay: functional, cell-based.
The test system of assay [5] is IMR-32. As to the kind of experiment: Cytotoxicity against human IMR32 cells after 48 hrs by SRB assay. In kind it is cell-based. The following applies: IMR-32, 48 h. On the technique in general: In SRB staining, fixed cells bind dye roughly in proportion to their protein.
Assay [6] relates to IMR-32. Put plainly: Neurotrophic activity in human IMR32 cells assessed as appearance of neurites at 1 to 10 uM after 96 hrs by bright field microscopic analysis. Type of assay: functional, cell-based.

For orientation: IC50 means the concentration that gives 50% inhibition. Take `Clc1ccc([C@H]2Nc3ccccc3[C@H]3C=CC[C@H]32)cc1`: the result in assay [1], in assay [2], in assay [3], in assay [4] and in assay [6] was inactive. In assay [5], this molecule yielded an IC50 of more than 100 µM.

Take `O=[N+]([O-])c1ccc2c(c1)N[C@H](c1ccccc1)[C@@H]1CC=C[C@H]21`: the result in assay [1], in assay [2], in assay [3], in assay [4] and in assay [6] was inactive. This molecule also displayed an IC50 in assay [5] of more than 100 µM.

On to `O=[N+]([O-])c1ccc2c(c1)N[C@H](c1ccccc1)[C@@H]1C[C@H](O)[C@H](O)[C@H]21`, for which the result in assay [1], in assay [2], in assay [3], in assay [4] and in assay [6] was inactive. The same molecule returned an IC50 in assay [5] of 57.1 µM.

Regarding `O[C@@H]1[C@@H]2c3ccc(F)cc3N[C@H](c3ccccc3)[C@@H]2C[C@@H]1O`, the outcome in assay [1], in assay [2], in assay [3], in assay [4] and in assay [6] was inactive. In assay [5], this molecule registered an IC50 of more than 100 µM.

For `C=CCO[C@@H]1[C@@H]2c3ccccc3N(C(C)=O)[C@H](c3ccccc3)[C@@H]2C[C@H]1N=[N+]=[N-]`, the outcome in assay [1], in assay [2], in assay [3], in assay [4] and in assay [6] was inactive. In assay [5], this molecule had an IC50 of 17.4 µM.

With `CC(=O)N1c2ccccc2[C@H]2[C@@H](O)[C@H](N=[N+]=[N-])C[C@H]2[C@H]1c1ccc(Cl)cc1`, the outcome in assay [1], in assay [2], in assay [3], in assay [4] and in assay [6] was inactive. The IC50 in assay [5] is more than 100 µM.

Take `O[C@@H]1[C@@H]2c3ccccc3N[C@H](c3ccc(Cl)cc3)[C@@H]2C[C@@H]1O`: the result in assay [1], in assay [2], in assay [3], in assay [4] and in assay [6] was inactive. This molecule showed an IC50 in assay [5] of 64.6 µM.

As to `CC(=O)N1c2ccccc2[C@H]2C=CC[C@H]2[C@H]1c1ccccc1C`, the outcome in assay [1], in assay [2], in assay [3], in assay [4] and in assay [6] was inactive. Besides, the IC50 in assay [5] was more than 100 µM.

In the case of `CC(=O)N1c2ccccc2[C@H]2C=CC[C@H]2[C@H]1c1cccc(Br)c1`, the result in assay [1], in assay [2], in assay [3], in assay [4] and in assay [6] was inactive. Moreover, the IC50 in assay [5] is more than 100 µM.

For `CC(=O)N1c2ccccc2[C@H]2C=CC[C@H]2[C@H]1c1ccc(Cl)cc1`, the outcome in assay [1], in assay [2], in assay [3], in assay [4] and in assay [6] was inactive. This molecule also displayed an IC50 in assay [5] of 94.7 µM.

Consider `Brc1cccc([C@H]2Nc3ccccc3[C@H]3C=CC[C@H]32)c1`, for which the outcome in assay [1], in assay [2], in assay [3], in assay [4] and in assay [6] was inactive. The molecule also showed an IC50 in assay [5] of more than 100 µM.

Consider `CC(=O)N1c2ccccc2[C@H]2C=CC[C@H]2[C@H]1c1ccccc1`, for which the result in assay [1], in assay [2], in assay [3], in assay [4] and in assay [6] was inactive. Besides, inhibition in assay [5] was half-maximal at 61.6 µM (IC50).

For the molecule `Brc1ccc2c(c1)[C@H]1C=CC[C@H]1[C@@H](c1ccccc1)N2`, the result in assay [1], in assay [2], in assay [3], in assay [4] and in assay [6] was inactive. This molecule also displayed a half-inhibitory concentration (IC50) in assay [5] of 94.4 µM.

Regarding `O[C@@H]1[C@@H]2c3ccccc3N[C@H](c3ccccc3)[C@@H]2C[C@@H]1O`, the outcome in assay [1], in assay [2], in assay [3], in assay [4] and in assay [6] was inactive. In addition, the IC50 in assay [5] is more than 100 µM.

Turning to `Cc1ccccc1[C@H]1Nc2ccccc2[C@H]2[C@@H](O)[C@@H](O)C[C@H]21`, the result in assay [1], in assay [2], in assay [3], in assay [4] and in assay [6] was inactive. In assay [5], this molecule showed an IC50 of more than 100 µM.

For the molecule `C=CCO[C@@H]1[C@@H]2c3ccccc3N(C(C)=O)[C@H](c3cccc(Br)c3)[C@@H]2C[C@H]1N=[N+]=[N-]`, the outcome in assay [1], in assay [2], in assay [3], in assay [4] and in assay [6] was inactive. Moreover, in assay [5], the 50% inhibitory concentration (IC50) is more than 100 µM.

As to `Cc1ccccc1[C@H]1Nc2ccccc2[C@H]2C=CC[C@H]21`, the outcome in assay [1], in assay [2], in assay [3], in assay [4] and in assay [6] was inactive. Moreover, in assay [5], the IC50 was determined as 87.2 µM.

As to `C=CCO[C@H]1C(n2cc(-c3ccccc3)nn2)C[C@@H]2[C@H]1c1ccccc1N(C(C)=O)[C@@H]2c1ccccc1` (single isomer, unassigned), the result in assay [1], in assay [2], in assay [3], in assay [4] and in assay [6] was inactive. For the same molecule, the IC50 in assay [5] was 65 µM.

`CC(=O)N1c2ccccc2[C@@H]2[C@@H](C[C@@H]3O[C@H]23)[C@H]1c1cccc(Br)c1`: the outcome in assay [1], in assay [2], in assay [3], in assay [4] and in assay [6] was inactive. In addition, the half-maximal inhibitory concentration (IC50) in assay [5] was more than 100 µM.

The molecule `COc1cccc2c1C(=O)c1c(O)c3c(c(O)c1C2=O)C[C@@](O)(C(=O)CO)C[C@@H]3O[C@H]1C[C@H](N)[C@H](O)[C@H](C)O1` [DOXORUBICIN] came in with an IC50 in assay [5] of 8.49 µM.
